This note sets out measurements from ChEMBL document CHEMBL1149748, “Studies on Formosan soft corals. II. Cytotoxic cembranolides from the soft coral Lobophytum michaelae” (1992).

≈ marks a conversion by molar mass, not a printed value.

Common to all, as to assay type: functional
Assay [1] has as its system A549. The experiment in a line: Cytotoxicity against human A549 cells after 6 days by MTT assay. To be noted: A549, 144 h, read-out: ED50 (the source's name).
In assay [2] the test system is KB. The experiment in a line: Cytotoxicity against human KB cells after 3 days by MTT assay. To be noted: 72 h, read-out: ED50 (the source's name).
For assay [3], the system named is P388. The experiment in a line: Cytotoxicity against mouse P388 cells after 3 days by MTT assay. Conditions: P388, 72 h, read-out: ED50 (the source's name). For orientation: Tetrazolium assays rely on reduction of a dye to a coloured formazan, in cell work by metabolically active cells.
For assay [4], the system named is HT-29. The experiment in a line: Cytotoxicity against human HT-29 cells after 6 days by MTT assay. Conditions: HT-29, 144 h, read-out: ED50 (the source's name).

With `C=C1C(=O)O[C@@H]2[C@H]1[C@H](OC(C)=O)C/C(C)=C/C[C@H](OC(C)=O)/C(C)=C/C[C@@H](OC(C)=O)[C@]1(C)O[C@@H]21` [CRASSOLIDE], the EC50 in assay [1] is 0.39 µg/mL (≈ 0.795 µM); in assay [2], 0.85 µg/mL (≈ 1.73 µM); in assay [3], 0.08 µg/mL (≈ 0.163 µM); in assay [4] it was 0.26 µg/mL (≈ 0.53 µM).

Consider `C=C1C(=O)O[C@@H]2[C@H]1[C@@H](OC(C)=O)C/C(C)=C/[C@@H](OC(C)=O)C/C(C)=C/CC[C@@]1(C)O[C@H]21` [LOBOMICHAOLIDE], for which the EC50 is 0.38 µg/mL (≈ 0.879 µM) in assay [1], 0.59 µg/mL (≈ 1.36 µM) in assay [2], 0.34 µg/mL (≈ 0.786 µM) in assay [3] and 0.37 µg/mL (≈ 0.855 µM) in assay [4].
